Where no end group is shown, it is not given here.
Experiments:
[1] = system: dermal and epidermal hyaluronic acid levels; conditions: ex vivo human skin model; cited from earlier work
[2] = system: Hyaluronic Acid Synthase 2 (HAS2); experiment: RNA-Seq gene expression of HAS2 in dermal fibroblasts; format: cell-based, Human; conditions: 24 hr, Octapeptide 100 μg/ml
Procedure: (§1) Cell Lines. Human adult dermal fibroblast and keratinocyte cell lines were treated with 11 different compound treatments (plus DMSO control as treatment #12Primary cells were plated in cell specific media at 5K or 10K cells per cm^2. Cells were plated in 48 well plates (Greiner) in triplicate, one cell line per plate. Media volume was 500 ul per well. Outer two columns of wells were not used. All rows were used. Cells were cultured for 2 days in 37° C. 5% CO2 incubator. After 48 hours all the cell cultures were uniform and appeared healthy, no appreciable number of floating dead cells or evidence of vacuolization of cells that might indicate apoptotic or dying cells.
(§2) Compounds. Stocks of compounds 1 through 8 on the list below were prepared in PBS. […] This stock was 100× of final concentration. A 20 mg/ml stock of compound 10 (CBD) was prepared in DMSO. No undissolved particulates were observed but the stock solution was slightly cloudy, not completely clear. […]
(§3) RNA Lysate preparation. […] All samples were shipped frozen on dry ice for RNA extraction, library construction and sequencing to 25M paired end 100 bp reads per sample.
(§4) RNA-Seq. All the RNA samples were shipped frozen on dry ice for RNA extraction, library construction and sequencing to 25M paired end 100 bp reads per sample. Differentially expressed genes were identified and pathway enrichment was assessed using the Reactome Pathway.

Hyaluronidase 2 (HYAL2) = experiment: RNA-Seq gene expression of HYAL2 in keratinocytes; format: cell-based, Human; conditions: 24 hr, 100 μg/ml
Procedure: as §1, §2, §3, §4

dermal fibroblasts = experiment: HA production and size assessment by PAGE of fibroblast supernatant; format: cell-based, human; conditions: 1× and 10× (100 μg/ml and 1000 μg/ml), 72 hr, 4 experiments
Procedure: Dermal fibroblasts were cultured in growth medium until near confluence in 6-well plates. When they reached confluence, the growth medium was replaced with serum-free medium for 24 hours. After 72 hr, 100 μl of media was collected from each treatment condition. The media was concentrated in a SpeedVac concentrator to a final volume of ˜10 μl. All 10 μl from each condition, were loaded onto an acrylamide gel (NuPAGE 4-12% Bis-Tris Protein Gel, Invitrogen, Waltham, MA). Sodium Hyaluronate, Research Grade, (HA2M) from Lifecore Biomedical (Chaska, MN) was reconstituted as recommended by the manufacturer and served as a MW reference, representing high MW HA. The gel was run at 200V for 3 hours to separate MW sizes from proteins and ECM components isolated from the supernatants along with the HA2M reference as a comparator. Gel buffer was exchanged with fresh room temperature buffer every 20 minutes to avoid overheating. The gel was stained using Stains-All (Millipore Sigma, Burlington, MA) and destained according to the manufacturer's protocol. […]
Human dermal fibroblasts were treated with Octapeptide (1× and 10×; corresponding to 100 μg/ml and 1000 μg/ml respectively) or left untreated. […] The experiment was conducted 4 times and the density of the bands from each supernatant were quantified (arbitrary units (AU)) using ImageJ. […]

[3] = system: microfibrillar-associated protein 4 (MFAP4); experiment: Ex vivo human skin tissue, MFAP4 immunofluorescent staining; conditions: once daily for 7 days, 20 μg/ml of each peptide
Procedure: (§5) Referring to FIG. 24, human skin tissue was defatted and cut into a diameter of approximately 7 mm and placed in a transwell insert with cell culture media (DMEM/F12 containing […] CaCl2), 2% fetal bovine serum, 50 μM adenine, 0.02 nM tri-iodothyronine, 1% ITS-X (insulin, transferrin, selenium mix), 1% glutagro (a glutamine equivalent), 1% pen/strep, and 1% gentamycin). The medium was changed daily. The human skin tissue samples were equilibrated for 3 days, then treated with the compounds noted in Table 6 once daily for 7 days. After 7 days of treatment, the skin samples were fixed in formalin and embedded in paraffin following industry standard procedures. The resulting blocks were prepared and sectioned for immunofluorescent staining.
(§6) Antibodies directed to tropoelastin (TE) (available from Elastin, Owensville, MO) and antibodies against microfibrillar-associated protein 4 (MFAP4) (available from ThermoFisher Waltham, MA) were used to detect the production of new elastin in the treated cells. The appropriate fluorescent secondary antibodies were used for detection by fluorescence microscopy. Images were obtained and analyzed using ImageJ software.
(§7) Data was obtained from a minimum of three donor skin samples and replicates or triplicates were performed for each compound treated.

tropoelastin (TE) = experiment: Ex vivo human skin tissue, tropoelastin immunofluorescent staining; conditions: once daily for 7 days, 20 μg/ml of each peptide
Procedure: as §5, §6, §7

[4] = system: Hyaluronic Acid Synthase 2 (HAS2); experiment: RNA-Seq gene expression of HAS2 in keratinocytes; format: cell-based, Human; conditions: 24 hr, Hexapeptide 11 100 μg/ml
Procedure: as §1, §2, §3, §4

[5] = system: Early Growth Response 3 (EGR3); experiment: RNA-Seq gene expression of EGR3 in keratinocytes; format: cell-based, Human; conditions: 24 hr, Hexapeptide 11 100 μg/ml
Procedure: as §1, §2, §3, §4

| Compound | stimulation of dermal hyaluronic acid levels versus placebo [1] [%] | stimulation of epidermal hyaluronic acid levels versus placebo [1] [%] | HAS2 gene expression, fold-change relative to the non-treated cells [2] | HYAL2 gene expression, fold-change relative to the non-treated cells (Hyaluronidase 2 (HYAL2)) | production of high MW HA (band density, AU) (dermal fibroblasts) | MFAP4 expression vs untreated skin [3] | TE expression vs untreated skin (tropoelastin (TE)) | HAS2 gene expression, fold-change relative to the non-treated cells [4] | upregulation of EGR3 gene expression relative to the non-treated cells [5] |
| --- | --- | --- | --- | --- | --- | --- | --- | --- | --- |
| CCCCCCCC(=O)CCc1ccc(O)c(OC)c1 [Hydroxymethoxyphenyl decanone] | 259 | 198 | – | – | – | – | – | – | – |
| GPHGVREA [octapeptide-45, proprietary peptide designed by R&D at Alastin; octapeptide included in HA Immerse Serum] | – | – | excellent stimulation | modest downregulation | dose-responsive increase in the production of high MW HA | increases | increases | – | – |
| Hexapeptide-11 | – | – | – | potent downregulation | – | – | – | excellent upregulation | about seven |

— patent publication US20250025525A1, “OCTAPEPTIDE FOR TOPICAL APPLICATION” (Alastin Skincare, Inc., priority 2022, published 2025)
